Laboratory results: US8722065B2, “Lidocaine tape preparation” (priority 2007, dated 2014)

Test: Crystal precipitability of lidocaine in the tape preparation / ionic liquid
Type: physicochemical
Settings: room temperature for several months
Description: A content initially inducing the crystal precipitation of lidocaine was examined. […] The crystal precipitability and transdermal absorbability therefor were evaluated. Lidoderm (registered trade name, from Endo, lidocaine content: 5%) was used as a standard material. […]

Crystal precipitation on storage: no crystal precipitation occurred
SMILES: CC(O)C(=O)O.CCN(CC)CC(=O)Nc1c(C)cccc1C [lactic acid salt of lidocaine]
